Test results from patent US8258116B2, “Combination therapy for the treatment of HCV infection” (Vertex Pharmaceuticals Incorporated, priority 2007, dated 2012).
Read-outs that look alike come from different tables or passages of the source.

Experiments:
[1] = system: HCV replicon cells (wild-type clone 24-2, Huh-7); assay: 2-day Replicon assay with bDNA quantitation, checkerboard combination (Bliss independence / MacSynergy); format: cell-based; details: Hepatitis C virus, Huh-7, 48 h, polymerase inhibitor in the checkerboard experiment with VX-950, read-out: Polymerase Inhibitor IC50
Procedure: Huh-7 cells were propagated in Dulbecco's modified Eagle's medium (DMEM, JRH Biosciences, Lenexa, Kans.) supplemented with 10% heat-inactivated FBS (fetal bovine serum), 2 mM L-glutamine, and nonessential amino acids (JRH). The cells were transfected with an in vitro transcribed HCV replicon RNA identical to replicon 1377neo/NS3-3′/wt as described by Lohmann et al. (1999). Stable cell clones were selected and maintained in the presence of 250 μg/mL G418 (Invitrogen, Carlsbad, Calif.). One of the clones, 24-2, was used as the wild-type in the subsequent HCV replicon assays for combination studies. The HCV NS3 protease variant replicons were constructed in the background of the mADE wild-type replicon as described previously [Chao Lin et al., “In Vitro Resistance Studies of Hepatitis C Virus Serine Protease Inhibitors, VX-950 and BILN 2061: Structural Analysis Indicates Different Resistance Mechanisms,” Journal of Biological Chemistry, 279(17); pp. 17508-17514 (2004)]. The replicon cells were propagated in DMEM supplemented with 10% FBS, 2 mM L-glutamine, nonessential amino acids, and 250 μg/mL G418. The cells were split twice per week in fresh media upon reaching confluence. There are approximately 200-300 copies of HCV RNA per 24-2 replicon cell.
(§1) HCV replicon RNA from cells was measured using the Quantigene Discover XL kit (Panomics Inc., Fremont Calif.) as per the manufacturer's instructions. Briefly, compound-treated replicon cells were lysed and immobilized on to capture plates using HCV specific oligonucleotides (designed based on the 5′ UTR region of HCV 1b genome sequence AJ238799 in the GenBank database) over night and the relative amounts of captured RNA was measured using oligonucleotide probe sets as per the manufacturer's instructions.
(§2) On the day prior to the assay, 10,000 replicon cells were plated per well of a 96-well plate and allowed to attach and grow overnight in DMEM (Invitrogen, Carlsbad, Calif.) supplemented with 10% heat-inactivated FBS (JRH Biosciences, Lenexa, Kans.), 2 mM L-glutamine (Invitrogen), nonessential amino acids (Invitrogen) and 250 μg/ml G418 (Invitrogen). Next day, the medium was removed and antiviral agents that were serially diluted in DMEM containing 2% FBS and 0.5% DMSO (Sigma Chemical Co., St. Louis, Mo.) without G418, was added. The replicon cells were incubated with the antiviral agents for 48 h. HCV replicon RNA from cells was measured using the Quantigene Discover XL kit (Panomics Inc., Fremont Calif.) as per the manufacturer's instructions. Briefly, compound-treated replicon cells were lysed and immobilized onto capture plates using HCV specific oligonucleotides overnight and the relative amounts of captured RNA was measured using oligonucleotide probe sets as per the manufacturer's instructions. Unless indicated otherwise, each data point represents the average of three replicates. The IC50 is the concentration of the compound at which the HCV replicon RNA level in cells is reduced by 50% as compared to the untreated replicon cell controls. To monitor the effect of compounds on cell proliferation or cell viability, replicon cells were treated with serially diluted compounds for 48 h, after which cell viability was determined using a CellTiter Glo assay (Promega, Madison, Wis.). Each CC50 is derived from at least two replicates and is the concentration of the compound at which the number of viable cells is reduced by 50% as compared to untreated cell controls. The IC50 and CC50 was determined using 4-parameter curve fitting in the SoftMax Pro program (Molecular Devices, Sunnyvale, Calif.).
The effects of drug-drug combinations were evaluated using the Bliss independence model [W. R. Greco et al., “The search for synergy: a critical review from a response surface perspective,” Pharmacol. Rev., 47, pp. 331-385 (1995)]. The experimental data were analyzed by using MacSynergy, a three-dimensional analytical method developed by Prichard and Shipman [M. N. Prichard and C. […]

[2] = system: HCV NS3 protease variant replicon T54A; assay: microbe, parasite or virus in culture; format: cell-based; details: for IC50: Hepatitis C virus; for Fold Change: T54A, ratio of mutant IC50 to Wild type IC50 for the same inhibitor
Procedure: (§3) Huh-7 cells were propagated in Dulbecco's modified Eagle's medium (DMEM, JRH Biosciences, Lenexa, Kans.) supplemented with 10% heat-inactivated FBS (fetal bovine serum), 2 mM L-glutamine, and nonessential amino acids (JRH). The cells were transfected with an in vitro transcribed HCV replicon RNA identical to replicon 1377neo/NS3-3′/wt as described by Lohmann et al. (1999). Stable cell clones were selected and maintained in the presence of 250 μg/mL G418 (Invitrogen, Carlsbad, Calif.). […] The HCV NS3 protease variant replicons were constructed in the background of the mADE wild-type replicon as described previously [Chao Lin et al., “In Vitro Resistance Studies of Hepatitis C Virus Serine Protease Inhibitors, VX-950 and BILN 2061: Structural Analysis Indicates Different Resistance Mechanisms,” Journal of Biological Chemistry, 279(17); pp. 17508-17514 (2004)]. The replicon cells were propagated in DMEM supplemented with 10% FBS, 2 mM L-glutamine, nonessential amino acids, and 250 μg/mL G418. The cells were split twice per week in fresh media upon reaching confluence. There are approximately 200-300 copies of HCV RNA per 24-2 replicon cell.
as §1, §2
(§4) The sensitivity of NS3 protease variants to ribavirin and interferon was assessed in a 2-Day HCV Replicon IC50 Assay.

[3] = system: HCV NS3 protease variant replicon V36M+R155K; assay: microbe, parasite or virus in culture; format: cell-based; details: for Fold Change: V36M-R155K, ratio of mutant IC50 to Wild type IC50 for the same inhibitor
Procedure: as §3, §1, §2, §4

[4] = system: HCV NS3 protease variant replicon V36M; assay: microbe, parasite or virus in culture; format: cell-based; details: for IC50: Hepatitis C virus; for Fold Change: V36M, ratio of mutant IC50 to Wild type IC50 for the same inhibitor
Procedure: as §3, §1, §2, §4

[5] = system: HCV NS3 protease variant replicon R155K; assay: microbe, parasite or virus in culture; format: cell-based; details: for IC50: Hepatitis C virus; for Fold Change: R155K, ratio of mutant IC50 to Wild type IC50 for the same inhibitor
Procedure: as §3, §1, §2, §4

[6] = system: HCV NS3 protease variant replicon V36A; assay: microbe, parasite or virus in culture; format: cell-based; details: for IC50: Hepatitis C virus; for Fold Change: V36A, ratio of mutant IC50 to Wild type IC50 for the same inhibitor
Procedure: as §3, §1, §2, §4

[7] = system: HCV NS3 protease variant replicon A156V; assay: 2-Day HCV Replicon IC50 Assay, A156V; format: cell-based; details: for Fold Change: A156V, ratio of mutant IC50 to Wild type IC50 for the same inhibitor; for IC50: Hepatitis C virus, read-out: Avg. IC50 ± STDEV
Procedure: as §3, §1, §2, §4

[8] = system: HCV replicon Wild Type (mADE); assay: 2-Day HCV Replicon IC50 Assay, wild type replicon; format: cell-based; details: for IC50: Hepatitis C virus; for Fold Change: ratio of IC50 to Wild type IC50 for the same inhibitor
Procedure: as §3, §1, §2, §4

[9] = system: HCV NS3 protease variant replicon A156T; assay: 2-Day HCV Replicon IC50 Assay, A156T; format: cell-based; details: for Fold Change: A156T, ratio of mutant IC50 to Wild type IC50 for the same inhibitor; for IC50: Hepatitis C virus, read-out: Avg. IC50 ± STDEV
Procedure: as §3, §1, §2, §4

[10] = system: HCV NS3 protease variant replicon V36M-R155T; assay: microbe, parasite or virus in culture; format: cell-based
Procedure: as §3, §1, §2, §4

[11] = system: HCV NS3 protease variant replicon R155M; assay: microbe, parasite or virus in culture; format: cell-based
Procedure: as §3, §1, §2, §4

[12] = system: HCV NS3 protease variant replicon R155T; assay: microbe, parasite or virus in culture; format: cell-based
Procedure: as §3, §1, §2, §4

[13] = system: HCV NS3 protease variant replicon V36A-R155T; assay: microbe, parasite or virus in culture; format: cell-based
Procedure: as §3, §1, §2, §4

[14] = system: HCV NS3 protease variant replicon V36A-R155K; assay: microbe, parasite or virus in culture; format: cell-based
Procedure: as §3, §1, §2, §4

[15] = system: HCV NS3 protease variant replicon A156V; details: A156V replicon versus wild-type (Lin et al., 2005); cited from earlier work
[16] = system: HCV NS3 protease variant replicon A156T; details: A156T replicon versus wild-type (Lin et al., 2005); cited from earlier work
[17] = Table 8, Wild Type replicon, read-out: Avg. IC50 ± STDEV
[18] = Hepatitis C virus, read-out: Avg. IC50

Structure (SMILES)	IC50 [1]	IC50 ([2]; read-out: Avg. IC50 ± STDEV)	Fold Change [2]	Fold Change [3]	IC50 ([4]; read-out: Avg. IC50 ± STDEV)	Fold Change [4]	IC50 ([5]; read-out: Avg. IC50 ± STDEV)	Fold Change [5]	IC50 ([6]; read-out: Avg. IC50 ± STDEV)	Fold Change [6]	Fold Change [7]	IC50 [7]	IC50 [8, 17]	Fold Change ([8]; Wild Type replicon)	Fold Change [9]	IC50 [9]	also measured
CCN(CC)C1CCN(C(=O)Cn2c(-c3ccc(Cl)cc3)c(C3CCCCC3)c3ccc(C(=O)O)cc32)CC1 [Formula III]	0.7 µM	0.337 ± 0.045 µM	1.1	1.3	0.227 ± 0.064 µM	0.7	0.39 ± 0.065 µM	1.2	0.369 ± 0.066 µM	1.2	0.9	0.297 ± 0.066 µM	0.313 ± 0.032 µM	1.0	1.0	0.306 ± 0.01 µM	–
O=c1c(C2=NS(=O)(=O)c3ccccc3N2)c(O)c2ccccc2n1NC1CCC1 [Formula II]	1.04 µM	0.564 ± 0.111 µM	1.6	1.7	0.36 ± 0.164 µM	1.0	0.45 ± 0.023 µM	1.3	0.571 ± 0.093 µM	1.6	0.8	0.264 ± 0.045 µM	0.347 ± 0.108 µM	1.0	0.9	0.326 ± 0.003 µM	–
C[C@@]1(O)[C@H](O)[C@@H](CO)O[C@H]1n1ccc(N)nc1=O [Formula I]	7.21 µM	1.98 ± 0.388 µM	1.5	2.0	1.59 ± 0.361 µM	1.2	2.37 ± 0.678 µM	1.8	2.15 ± 0.874 µM	1.6	1.0	1.31 ± 0.216 µM	1.34 ± 0.473 µM	1.0	0.9	1.27 ± 0.185 µM	–
NC(=O)c1ncn([C@@H]2O[C@H](CO)[C@@H](O)[C@H]2O)n1 [Ribavirin, 1-beta-D-ribofuranosyl-1H-1,2,4-triazole-3-carboxamide, reference compound]	–	–	0.4	0.7	–	0.6	–	0.6	–	0.7	–	–	–	1.0	–	–	IC50 [10, 18]: 36.4 ± 1.3 µM; Fold Change ([10]; V36M-R155T, ratio of mutant IC50 to Wild type IC50 for the same inhibitor): 0.6; IC50 ([2]; read-out: Avg. IC50): 21.7 ± 11.1 µM; IC50 [3, 18]: 40.6 ± 6.1 µM; IC50 [11, 18]: 38.9 ± 4.7 µM; Fold Change ([11]; R155M, ratio of mutant IC50 to Wild type IC50 for the same inhibitor): 0.7; IC50 [12, 18]: 32.4 ± 17.7 µM; Fold Change ([12]; R155T, ratio of mutant IC50 to Wild type IC50 for the same inhibitor): 0.6; IC50 ([4]; read-out: Avg. IC50): 32.9 ± 17.8 µM; IC50 ([5]; read-out: Avg. IC50): 37.2 ± 17 µM; IC50 [13, 18]: 41.7 ± 21.6 µM; Fold Change ([13]; V36A-R155T, ratio of mutant IC50 to Wild type IC50 for the same inhibitor): 0.7; IC50 ([6]; read-out: Avg. IC50): 43.1 ± 21.3 µM; IC50 [14, 18]: 35.8 ± 2.2 µM; Fold Change ([14]; V36A-R155K, ratio of mutant IC50 to Wild type IC50 for the same inhibitor): 0.6; sensitivity of replicon [15]: comparable to the wild-type; sensitivity of replicon [16]: comparable to the wild-type; IC50 ([8]; Ribavirin, Wild Type (mADE) replicon, read-out: Avg. IC50): 57.8 ± 17.6 µM
